Test results as given in patent US11046699B2, “Pyrazolo-pyrimidin-amino-cycloalkyl compounds and their therapeutic uses” (RAPT THERAPEUTICS, INC., priority 2018, dated 2021).
Where two headings read alike, the source gives them in different places.

Molecular target: GCN2 (Homo sapiens, UniProt Q9P2K8)
Experiment: GCN2 enzymatic endpoint assay: phosphorylation of GFP-eIF2α measured by TR-FRET (Lanthascreen)
Type: biochemical
Summary of the method: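 Endpoint kinase reaction with 2 μM ATP and 80 nM GFP-labelled eIF2α substrate, run at room temperature for 90 min, then stopped with EDTA. Phospho-substrate detected by terbium-antibody TR-FRET, activity taken as the 520/495 nm emission ratio.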

[1] = tested as described in Example 77, compound and/or hydrochloride, dihydrochloride or trifluoroacetic acid salt, read-out: IC 50 Activity

Chain of GCN2 (Q9P2K8 whole entry): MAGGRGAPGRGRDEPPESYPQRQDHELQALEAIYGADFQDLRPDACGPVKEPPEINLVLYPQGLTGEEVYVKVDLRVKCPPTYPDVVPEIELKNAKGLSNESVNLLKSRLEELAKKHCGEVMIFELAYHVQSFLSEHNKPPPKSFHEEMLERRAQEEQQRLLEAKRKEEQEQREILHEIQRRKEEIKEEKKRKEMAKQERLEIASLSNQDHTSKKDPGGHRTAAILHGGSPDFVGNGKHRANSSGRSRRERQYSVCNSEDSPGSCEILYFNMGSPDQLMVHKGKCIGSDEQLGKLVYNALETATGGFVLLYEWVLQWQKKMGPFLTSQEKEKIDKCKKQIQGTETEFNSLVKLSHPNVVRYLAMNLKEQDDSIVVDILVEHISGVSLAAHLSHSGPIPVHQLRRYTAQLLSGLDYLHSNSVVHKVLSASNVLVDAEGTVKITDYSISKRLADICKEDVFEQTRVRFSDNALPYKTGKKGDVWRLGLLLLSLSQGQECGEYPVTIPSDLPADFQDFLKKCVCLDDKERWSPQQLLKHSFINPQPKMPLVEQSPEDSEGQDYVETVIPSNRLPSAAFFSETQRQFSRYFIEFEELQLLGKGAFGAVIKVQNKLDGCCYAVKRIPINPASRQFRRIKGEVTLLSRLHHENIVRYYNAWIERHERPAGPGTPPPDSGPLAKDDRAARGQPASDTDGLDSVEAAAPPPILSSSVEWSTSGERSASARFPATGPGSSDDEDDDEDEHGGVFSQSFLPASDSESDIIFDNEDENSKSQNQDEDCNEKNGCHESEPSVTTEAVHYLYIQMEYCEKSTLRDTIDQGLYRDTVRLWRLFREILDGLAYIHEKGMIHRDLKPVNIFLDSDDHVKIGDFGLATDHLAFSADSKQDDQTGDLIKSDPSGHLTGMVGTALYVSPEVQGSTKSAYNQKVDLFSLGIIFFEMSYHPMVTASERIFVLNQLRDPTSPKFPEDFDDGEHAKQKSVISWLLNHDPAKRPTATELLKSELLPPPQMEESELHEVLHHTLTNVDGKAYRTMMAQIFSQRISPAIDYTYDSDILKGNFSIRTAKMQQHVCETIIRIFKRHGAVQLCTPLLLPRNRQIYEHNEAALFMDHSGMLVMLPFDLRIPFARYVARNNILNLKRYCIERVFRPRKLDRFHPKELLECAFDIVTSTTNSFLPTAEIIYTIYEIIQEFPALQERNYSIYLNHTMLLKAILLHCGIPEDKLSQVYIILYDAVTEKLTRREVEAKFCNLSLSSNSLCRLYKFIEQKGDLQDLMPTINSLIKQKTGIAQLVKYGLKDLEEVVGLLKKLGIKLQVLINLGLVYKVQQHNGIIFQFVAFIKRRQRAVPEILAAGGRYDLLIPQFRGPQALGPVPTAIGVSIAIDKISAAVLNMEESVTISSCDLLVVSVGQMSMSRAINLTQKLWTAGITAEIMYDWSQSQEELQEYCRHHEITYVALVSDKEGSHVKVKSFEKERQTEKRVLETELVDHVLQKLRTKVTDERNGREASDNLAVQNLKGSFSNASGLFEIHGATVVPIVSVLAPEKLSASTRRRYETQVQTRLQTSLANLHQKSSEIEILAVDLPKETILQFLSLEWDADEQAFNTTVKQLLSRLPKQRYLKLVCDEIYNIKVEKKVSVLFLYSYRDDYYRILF

Structure (SMILES)	IC50 [1]	IC50 (GCN2 biochemical IC50, 4 nM GCN2, 2 μM ATP, 80 nM GFP-eIF2α, 90 min RT, read-out: GCN2 activity)
CNC(=O)[C@]1(C)CC[C@@H](Nc2ncc3c(Br)nn(-c4cc(Cl)cc(CC#N)c4)c3n2)C1 [(1R,3R)-3-[[3-bromo-1-[3-chloro-5-(cyanomethyl)phenyl]pyrazolo[3,4-d]pyrimidin-6-yl]amino]-N,1-dimethyl-cyclopentanecarboxamide]	25 to 200 nM	–
COCCNC(=O)[C@]1(C)CC[C@@H](Nc2ncc3c(Br)nn(-c4ccc(-c5nnc(C)s5)cc4)c3n2)C1 [(1R,3R)-3-[[3-bromo-1-[4-(5-methyl-1,3,4-thiadiazol-2-yl)phenyl]pyrazolo [3,4-d]pyrimidin-6-yl]amino]-N-(2-methoxyethyl)-1-methyl-cyclopentane-carboxamide]	25 to 200 nM	–
O=C1CN(C(=O)[C@@H]2CC[C@@H](Nc3ncc4c(Br)nn(-c5cc(F)c6ncccc6c5)c4n3)C2)CCN1 [4-((1R,3R)-3-((3-bromo-1-(8-fluoroquinolin-6-yl)-1H-pyrazolo[3,4-d]pyrimidin-6-yl)amino)cyclopentane-1-carbonyl)piperazin-2-one]	25 to 200 nM	–
CNC(=O)[C@]1(C)CC[C@@H](Nc2ncc3c(Br)nn(-c4ccc(C5=NCCO5)cc4)c3n2)C1 [(1R,3R)-3-[[3-bromo-1-[4-(4,5-dihydro-oxazol-2-yl)phenyl]pyrazolo[3,4-d]pyrimidin-6-yl]amino]-N,1-dimethyl-cyclopentanecarboxamide]	25 to 200 nM	–
CNC(=O)[C@]1(CC(F)F)CC[C@@H](Nc2ncc3c(Br)nn(-c4cc(F)c5ncccc5c4)c3n2)C1 [(1R,3R)-3-[[3-bromo-1-(8-fluoro-6-quinolyl)pyrazolo[3,4-d]pyrimidin-6-yl]amino]-1-(2,2-difluoroethyl)-N-methyl-cyclopentane-carboxamide]	< 25 nM	–
CNC(=O)[C@]1(C)CC[C@@H](Nc2ncc3c(Br)nn(-c4ccc5nncn5c4)c3n2)C1 [(1R,3R)-3-[[3-bromo-1-([1,2,4]triazolo [4,3-a]pyridin-6-yl)pyrazolo[3,4-d]pyrimidin-6-yl]amino]-N,1-dimethyl-cyclopentanecarboxamide]	25 to 200 nM	–
CNC(=O)[C@]1(C)CC[C@@H](Nc2ncc3c(Br)nn(-c4ccc5c(c4)OCC(=O)N5C(C)C)c3n2)C1 [(1R,3R)-3-[[3-bromo-1-(4-isopropyl-3-oxo-1,4-benzoxazin-7-yl)pyrazolo[3,4-d]pyrimidin-6-yl]amino]-N,1-dimethyl-cyclopentanecarboxamide]	25 to 200 nM	–
CNC(=O)C1(CCS(C)(=O)=O)CC[C@@H](Nc2ncc3c(Br)nn(-c4ccc(-c5nnc(C)s5)c(CCC#N)c4)c3n2)C1 (stereo partly drawn)	25 to 200 nM	–
CNC(=O)[C@]1(C)CC[C@@H](Nc2ncc3c(Br)nn(-c4cc(OC)c5c(c4)OCC(=O)N5C)c3n2)C1 [(1R,3R)-3-[[3-bromo-1-(5-methoxy-4-methyl-3-oxo-1,4-benzoxazin-7-yl)pyrazolo[3,4-d]pyrimidin-6-yl]amino]-N,1-dimethyl-cyclopentanecarboxamide]	< 25 nM	–
O=C(O)CCNC(=O)[C@@H]1CC[C@@H](Nc2ncc3c(Br)nn(-c4cc(F)c5ncccc5c4)c3n2)C1 [3-((1R,3R)-3-((3-bromo-1-(8-fluoroquinolin-6-yl)-1H-pyrazolo[3,4-d]pyrimidin-6-yl)amino)cyclopentane-1-carboxamido) propanoic acid]	25 to 200 nM	–
COCCNC(=O)[C@@H]1CC[C@@H](Nc2ncc3c(Br)nn(-c4ccc(-n5cccn5)cc4)c3n2)C1 [(1R,3R)-3-((1-(4-(1H-pyrazol-1-yl)phenyl)-3-bromo-1H-pyrazolo[3,4-d]pyrimidin-6-yl)amino)-N-(2-methoxyethyl)cyclopentane-1-carboxamide]	200 to 500 nM	–
CNC(=O)[C@@]1(CC(F)(F)F)CC[C@@H](Nc2ncc3c(Br)nn(-c4ccc(-c5nnc(C)s5)cc4)c3n2)C1	25 to 200 nM	–
CNC(=O)[C@]1(C)CC[C@@H](Nc2ncc3c(Br)nn(-c4cc(CO)cc([N+](=O)[O-])c4)c3n2)C1 [(1R,3R)-3-[[3-bromo-1-[3-(hydroxy-methyl)-5-nitro-phenyl]pyrazolo [3,4-d]pyrimidin-6-yl]amino]-N,1-dimethyl-cyclopentanecarboxamide]	25 to 200 nM	–
CNC(=O)[C@]1(CO)CC[C@@H](Nc2ncc3c(Br)nn(-c4ccc(-c5nnc(C)s5)c(CCC#N)c4)c3n2)C1 [(1R,3R)-3-[[3-bromo-1-[3-(2-cyanoethyl)-4-(5-methyl-1,3,4-thiadiazol-2-yl)phenyl]pyrazolo[3,4-d]pyrimidin-6-yl]amino]-1-(hydroxymethyl)-N-methyl-cyclopentane-carboxamide]	25 to 200 nM	–
CS(=O)(=O)CCNC(=O)[C@@H]1CC[C@@H](Nc2ncc3c(Br)nn(-c4ccc5ncc(F)cc5c4)c3n2)C1	200 to 500 nM	–
CNC(=O)[C@]1(C)CC[C@@H](Nc2ncc3c(Br)nn(-c4ccc5c(c4)CCC(=O)N5CC(F)F)c3n2)C1 [(1R,3R)-3-[[3-bromo-1-[1-(2,2-difluoro-ethyl)-2-oxo-3,4-dihydroquinolin-6-yl]pyrazolo[3,4-d]pyrimidin-6-yl]amino]-N,1-dimethyl-cyclopentanecarboxamide]	25 to 200 nM	–
CNC(=O)[C@]1(C)CC[C@@H](Nc2ncc3c(Br)nn(-c4ccc(-c5cncnc5)cc4)c3n2)C1 [(1R,3R)-3-[[3-bromo-1-(4-pyrimidin-5-ylphenyl)pyrazolo[3,4-d]pyrimidin-6-yl]amino]-N,1-dimethyl-cyclopentane-carboxamide]	25 to 200 nM	–
O=C(NCc1ncco1)[C@@H]1CC[C@@H](Nc2ncc3c(Br)nn(-c4ccc5ncccc5c4)c3n2)C1 [(1R,3R)-3-((3-bromo-1-(quinolin-6-yl)-1H-pyrazolo[3,4-d]pyrimidin-6-yl)amino)-N-(oxazol-2-ylmethyl)cyclopentane-1-carboxamide]	25 to 200 nM	–
O=C(NC1CCOCC1)[C@@H]1CC[C@@H](Nc2ncc3c(Br)nn(-c4ccc5ncccc5c4)c3n2)C1 [(1R,3R)-3-((3-bromo-1-(quinolin-6-yl)-1H-pyrazolo[3,4-d]pyrimidin-6-yl)amino)-N-(tetrahydro-2H-pyran-4-yl)cyclopentane-1-carboxamide]	25 to 200 nM	–
C[C@@]1(C(=O)N2CNC(=O)C2)CC[C@@H](Nc2ncc3c(Br)nn(-c4cc(F)c5ncccc5c4)c3n2)C1 [1-[(1R,3R)-3-[[3-bromo-1-(8-fluoro-6-quinolyl)pyrazolo[3,4-d]pyrimidin-6-yl]amino]-1-methyl-cyclopentanecarbonyl] imidazolidin-4-one]	< 25 nM	–

The remaining lines, values ahead:

IC50 [1]	IC50 (GCN2 biochemical IC50, 4 nM GCN2, 2 μM ATP, 80 nM GFP-eIF2α, 90 min RT, read-out: GCN2 activity)	Structure (SMILES)
< 25 nM	–	CNC(=O)[C@@]1(C)CC[C@@H](Nc2ncc3c(Br)nn(-c4ccc5ncc(CCO)cc5c4)c3n2)C1 [(1S,3R)-3-[[3-bromo-1-[3-(2-hydroxy-ethyl)-6-quinolyl]pyrazolo[3,4-d]pyrimidin-6-yl]amino]-N,1-dimethyl-cyclopentanecarboxamide]
< 25 nM	–	O=C([C@@H]1CC[C@@H](Nc2ncc3c(Br)nn(-c4ccc5ncccc5c4)c3n2)C1)N1CCC2(CNC2)C1 [((1R,3R)-3-((3-bromo-1-(quinolin-6-yl)-1H-pyrazolo[3,4-d]pyrimidin-6-yl)amino)cyclo-pentyl)(2,6-diazaspiro[3.4]octan-6-yl) methanone]
–	25 to 200 nM	COCCNC(=O)[C@@H]1CC[C@@H](Nc2ncc3c(Br)nn(-c4ccc(-c5ncco5)cc4)c3n2)C1 [Example 26, (1R,3R)-3-((3-bromo-1-(4-(oxazol-2-yl)phenyl)-1H-pyrazolo[3,4-d]pyrimidin-6-yl)amino)-N-(2-methoxyethyl)cyclopentane-1-carboxamide]
25 to 200 nM	–	CNC(=O)[C@]1(C)CC[C@@H](Nc2ncc3c(Br)nn(-c4cc(Cl)cc(C(=O)NC5CNC5)c4)c3n2)C1 [N-(azetidin-3-yl)-3-[3-bromo-6-[[(1R,3R)-3-methyl-3-(methylcarbamoyl)cyclopentyl]amino]pyrazolo[3,4-d]pyrimidin-1-yl]-5-chloro-benzamide]
< 25 nM	–	CNC(=O)[C@@]1(C)CC[C@@H](Nc2ncc3c(Br)nn(-c4ccc5nc(OC)ccc5c4)c3n2)C1 [(1S,3R)-3-[[3-bromo-1-(2-methoxy-6-quinolyl)pyrazolo[3,4-d]pyrimidin-6-yl]amino]-N,1-dimethyl-cyclopentane-carboxamide]
25 to 200 nM	–	CNC(=O)[C@]1(C)CC[C@@H](Nc2ncc3c(Br)nn(-c4ccc(-c5nnc(C)[nH]5)cc4)c3n2)C1 [(1R,3R)-3-[[3-bromo-1-[4-(5-methyl-4H-1,2,4-triazol-3-yl)phenyl]pyrazolo[3,4-d]pyrimidin-6-yl]amino]-N,1-dimethyl-cyclopentanecarboxamide]
< 25 nM	–	CNC(=O)[C@]1(C)CC[C@@H](Nc2ncc3c(Br)nn(-c4ccc(-c5ncco5)c([C@@H]5CCNC5)c4)c3n2)C1 [(1R,3R)-3-[[3-bromo-1-[4-oxazol-2-yl-3-[(3S)-pyrrolidin-3-yl]phenyl]pyrazolo[3,4-d]pyrimidin-6-yl]amino]-N,1-dimethyl-cyclopentanecarboxamide]
25 to 200 nM	–	O=C([C@@H]1CC[C@@H](Nc2ncc3c(Br)nn(-c4cc(F)c5ncccc5c4)c3n2)C1)N1CCNC(C(F)(F)F)C1 (stereo partly drawn) [[(1R,3R)-3-[[3-bromo-1-(8-fluoro-6-quinolyl)pyrazolo[3,4-d]pyrimidin-6-yl]amino]cyclo-pentyl]-[3-(trifluoromethyl)piperazin-1-yl] methanone]
25 to 200 nM	–	CNC(=O)[C@]1(C)CC[C@@H](Nc2ncc3c(Br)nn(-c4ccc(C#N)c(OCC5(F)CNC5)c4)c3n2)C1 [(1R,3R)-3-[[3-bromo-1-[4-cyano-3-[(3-fluoroazetidin-3-yl)methoxy]phenyl]pyrazolo[3,4-d]pyrimidin-6-yl]amino]-N,1-dimethyl-cyclopentanecarboxamide]
25 to 200 nM	–	CNC(=O)[C@]1(C)CC[C@@H](Nc2ncc3c(Br)nn(-c4ccc(-c5nnc(C(=O)N6CCNCC6)s5)cc4)c3n2)C1 [(1R,3R)-3-[[3-bromo-1-[4-[5-(piperazine-1-carbonyl)-1,3,4-thiadiazol-2-yl]phenyl]pyrazolo[3,4-d]pyrimidin-6-yl]amino]-N,1-dimethyl-cyclopentanecarboxamide]
